Read-outs that look alike come from different tables or passages of the source.
Assays:
[1] = Plasma total cholesterol and HDL-cholesterol of rats fed a high-cholesterol diet; assay type: in vivo, rat (Sprague-Dawley); conditions: for HDL-C/TC ratio / HDL-C (HDL-cholesterol) / TC (Total cholesterol): 0.1% in 1% cholesterol diet, six weeks; for HDL-C/TC ratio: Control 28, listed as head is [formula]; for HDL-C (HDL-cholesterol): Control 38 ± 2; for TC (Total cholesterol): Control 135 ± 6; for increase of HDL-C/TC ratio / reduction of total plasma cholesterol level: as compared with control group
Source text: 40 three-week-old white Sprague-Dawley rats (Taihan laboratory animal center, Korea), each weighing about 90 to 110 g, were evenly divided into four dietary groups by a randomized block design. The rats of the four groups were fed with four different high-cholesterol diets, i.e., AIN-76 laboratory animal diet (ICN Biochemicals, Cleveland, Ohio, U.S.A.) containing 1% cholesterol (Control group); 1% cholesterol plus 0.1% 4-hydroxycinnamic acid (4-hydroxycinnamic acid group); 1% cholesterol plus 0.1% 3,4-dihydroxycinnamic acid (3,4-dihydroxycinnamic acid group); and 1% cholesterol plus 0.1% 3,4-dihydroxyhydrocinnamic acid (3,4-dihydroxyhydrocinnamic acid group), respectively.
The rats were allowed to feed freely on the specified diet together with water for six weeks, the ingestion amount was recorded daily and the rats were weighed every 7 days, and then the record was analyzed.
The effects of administering cinnamic acid derivatives to rats on the plasma cholesterol and neutral lipid contents were determined as follows.
The rats of the four dietary groups obtained in Step 1 were sacrificed and blood samples were taken therefrom. The blood was allowed to stand for 2 hours and centrifuged at 3,000 rpm for 15 minutes and the supernatant was separated and stored in a deep freezer before use. The chemical analysis of blood was carried out by employing a blood chemical analyzer (CIBA Corning 550 Express, USA) to determine the changes in total cholesterol and HDL-cholesterol levels.

[2] = assay type: in vivo, rabbit (New Zealand White); conditions: rabbits, 1% cholesterol diet plus 0.1% derivative or 1 mg/kg Lovastatin, 8 weeks; for HDL/TC: Control 2.5 ± 0.4; for HDL-C (High density lipoprotein-cholesterol): Control 50 ± 11; for TG (Triglyceride): Control 170 ± 30; for TC (Total cholesterol): Control 1995 ± 472
Method: (§1) 30 three-month-old male New Zealand White rabbits (Yeonam Horticulture and Animal Husbandry College, Korea), each weighing about 2.5 to 2.6 kg, were raised under condition of temperature 20±2° C., relative humidity 55±5%, and photoperiod 12L/12D. The rabbits were divided into 5 groups and 5 groups of rabbits were fed with 5 different diets, i.e., RC4 diet (Oriental Yeast Co., Japan) containing 1% cholesterol (Control group); 1% cholesterol plus 1 mg/kg Lovastatin® (Merck, U.S.A.) (Lovastatin group); 1% cholesterol plus 0.1% 4-hydroxycinnamic acid (4-hydroxycinnamic acid group); 1% cholesterol plus 0.1% 3,4-dihydroxycinnamic acid (3,4-dihydroxycinnamic acid group); and 1% cholesterol plus 0.1% 3,4-dihydroxyhydrocinnamic acid (3,4-dihydroxyhydrocinnamic acid group), respectively. RC4 diet comprises 7.6% moisture, 22.8% crude protein, 2.8% crude fat, 8.8% crude ash, 14.4% crude cellulose and 43.6% soluble nitrogen-free substances. Cinnamic acid derivatives were purchased from Sigma Chemical Co. (St. Louis, Mo.).
(§2) The rabbits were fed for 8 weeks while being allowed free access to the diets and water.
After eight weeks, the rabbits were anesthetized with an intramuscular injection of ketamine (50 mg/kg) in the femoral region and sacrificed. A blood sample was taken from the heart of each rabbit, allowed to stand for 2 hours and centrifuged at 3,000 rpm for 15 minutes and the supernatant serum was separated and stored in a freezer before use.
The chemical analysis of blood was carried out by employing a blood chemical analyzer (CIBA Corning 550 Express, USA) to determine the changes in GOT, GPT, total cholesterol, HDL-cholesterol and triglyceride levels.

liver = experiment: Prevention of hepatic diseases: microscopic fatty liver grading in rabbits; assay type: in vivo, rabbit (New Zealand White); conditions: for microscopic features of the liver: FIGS. 2A-2E, control: many cells containing excessive fat around the central vein; for fatty liver grade (1+ to 4+): grades 1+(0-25%), 2+(26-50%), 3+(51-75), 4+(76-100%), rabbits, 8 weeks, Control 3.2 ± 0.3
Method: as §1, §2

[3] = Acute oral toxicity in ICR mice; assay type: in vivo, mouse
Method: 12 seven-week-old, specific pathogen-free ICR […] mice, six female mice each weighing about 25 to 29 g and six male mice each weighing about 34 to 38 g, were kept under an environment of 22±1° C., 55±5% relative humidity and 12L/12D photoperiod. Fodder (Cheiljedang Co., mouse and rat fodder) and water were sterilized and fed to the mice.
4-hydroxycinnamic acid purchased from Aldrich-Sigma Chemical Co. (St. Louis, Mo., U.S.A) was dissolved in 0.5% Tween 80 to a concentration of 100 mg/ml, and the solution was orally administered to the mice in an amount of 0.2 ml per 20 g of mouse body weight. […] Further, on the 10th day, the mice were sacrificed and the internal organs were visually examined.

[4] = Plasma cholesterol and triglyceride in two men with hyperlipidemia; assay type: in vivo, human; conditions: 10 mg/kg daily oral capsule, 60 days
Method: Two men in their mid-fifties, suffered by hyperlipidemia with blood cholesterol level ranging from 230 to 270 mg/dl and blood triglyceride level ranging from 200 to 220 mg/dl, were administered with a daily oral dose of 10 mg/kg of 4-hydroxycinnamic acid in the form of a capsule for 60 days. The plasma cholesterol and triglyceride contents were determined before and after the administration.

Structure (SMILES)	HDL-C/TC ratio [1]	HDL-C (HDL-cholesterol) [1] [mg/dL]	TC (Total cholesterol) [1] [mg/dL]	increase of HDL-C/TC ratio [1] [%]	reduction of total plasma cholesterol level [1] [%]	HDL/TC [2] [%]	HDL-C (High density lipoprotein-cholesterol) [2] [mg/dL]	TG (Triglyceride) [2] [mg/dL]	TC (Total cholesterol) [2] [mg/dL]	microscopic features of the liver (liver)	fatty liver grade (1+ to 4+) (liver)	autopsy, internal organs ([3]; oral 1,000 mg/kg, 10th day)	weight changes ([3]; oral 1,000 mg/kg, 10 day test period)	survival ([3]; oral 1,000 mg/kg, day 10)	toxicity ([3]; single oral dose 1,000 mg/kg, mice, 10 days)	reduction of plasma cholesterol content [4] [%]	reduction of plasma triglyceride content [4] [%]
O=C(O)CCc1ccc(O)c(O)c1 [3,4-dihydroxyhydrocinnamic acid]	35	45 ± 4	127 ± 4	25	6	6.3 ± 1.6	80 ± 23	108 ± 22	1256 ± 150	almost all liver cells are of a normal shape	2.6 ± 0.3	–	–	–	–	–	–
O=C(O)/C=C/c1ccc(O)cc1 [4-Hydroxycinnamic acid, 4-hydroxycinnamic acid]	56	57 ± 3	102 ± 6	100	24	3.7 ± 1.3	57 ± 28	167 ± 43	1517 ± 417	almost all liver cells are of a normal shape	2.7 ± 0.3	had not developed any pathological abnormality	no weight loss was observed	All the mice were alive	showed no toxicity	25	20
O=C(O)/C=C/c1ccc(O)c(O)c1 [3,4-dihydroxycinnamic acid]	33	39 ± 3	118 ± 6	18	13	3.4 ± 0.4	53 ± 13	139 ± 46	1559 ± 347	almost all liver cells are of a normal shape	2.6 ± 0.3	–	–	–	–	–	–

— patent US6313171A, “Method for preventing or treating elevated blood lipid level-related diseases by administering cinnamic acid derivatives” (Korea Research Institute of Bioscience & Biotechnology, priority 1998, dated 2001)
